This note sets out measurements from patent US4510136A (priority 1983, dated 1985).

The subject of one data set is Erysiphe cichoracearum. Description: Cucumber powdery mildew control on sprayed cucumber seedlings (Example 80). The data set is classed as in vivo. The following applies: Golovinomyces cichoracearum, 168 h, 100 ppm spray, day before inoculation.
For the next data set, the system named is apple seedlings. Description: Phytotoxicity on apple seedlings (Example 82). The data set is classed as in vivo. Set-up: key: G = growth reduction; H = hormonal effects. As for the experimental part: These suspensions were sprayed to the point of run-off on apple seedlings. The following day, the plants were inoculated with a spore suspension of the fungus Venturia inaequalis, causal agent of apple scab, and incubated in a saturated humidity chamber at 20° for 24 hours and then in a growth room for an additional 10-12 days. Treated plants from successful treatments had fewer apple scab lesions when compared to untreated plants which were covered with scab lesions. Phytotoxicity expressed as growth reduction was observed on some of the plants in association with disease control.

The next data set concerns Venturia inaequalis. Put plainly: Apple scab control on sprayed apple seedlings (Example 82). The data set is classed as in vivo. The following applies: Venturia inaequalis; for pest or weed control at 100 ppm: 100 ppm spray, day before inoculation.
The next data set relates to Helminthosporium maydis. Put plainly: Southern corn leaf blight control on sprayed corn seedlings (Example 83). The data set is classed as in vivo. The following applies: Bipolaris maydis, 192 h, 100 ppm spray, day before inoculation. Put shortly: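 Corn seedlings were sprayed to run-off with 100 ppm suspensions (6% acetone, 250 ppm TREM 014) and spore-inoculated the following day. Disease and growth reduction were rated after 24 h saturated humidity at 20° plus 7 days in a growth room.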

A further data set concerns Cercospora arachidicola. Put plainly: Peanut early leafspot control on sprayed peanut seedlings (Example 84). The format is in vivo. To be noted: Mycosphaerella arachidis, 360 h, read-out: % Control Peanut Easly Leafspot; for pest or weed control at 100 ppm: 100 ppm spray, day before inoculation.
Another data set concerns Erysiphe graminis. Put plainly: Barley powdery mildew control on sprayed barley seedlings (Example 81). The data set is classed as in vivo. To be noted: Blumeria graminis, 168 h; 100 ppm spray, day before inoculation. The procedure:
The compounds of the previous examples were again dissolved in acetone in an amount equal to 6% of the final volume and then suspended at a concentration of 100 ppm in purified water containing 250 ppm of the surfactant TREM 014 (polyhydric alcohol esters). These suspensions were sprayed to the point of run-off on barley seedlings. The following day, the plants were inoculated with a spore suspension of the fungus Erysiphe graminis, causal agent of barley powdery mildew, and incubated in growth room for 7 days. Disease ratings were then made. Treated plants from successful treatments had little or no powdery mildew in contrast to untreated plants which were covered with powdery mildew.

The next data set relates to cucumber seedlings. Description: Phytotoxicity on cucumber seedlings (Example 80). The following applies: 100 ppm spray. Set-up: key: G = growth reduction; H = hormonal effects. The format is in vivo. As for the experimental part: The compounds of the previous example were again dissolved in acetone in an amount equal to 6% of the final volume and then suspended at a concentration of 100 ppm in purified water containing 250 ppm of the surfactant TREM 014 (polyhydric alcohol esters). These suspensions were sprayed to the point of run-off, on cucumber seedlings. The following day, the plants were inoculated with a spore suspension of the fungus Erysiphe cichoracearum, causal agent of cucumber powdery mildew, and incubated in a growth room for 7 days. Disease ratings were then made. Treated plants from successful treatments had little or no powdery mildew in contrast to untreated plants which were covered with powdery mildew. Phytotoxicity in the form of growth reduction or hormonal effects was observed on some of the plants in association with disease control.

Data set [1] concerns Puccinia recondita var. tritici. Put plainly: Wheat leaf rust control on sprayed wheat seedlings (Example 79). The data set is classed as in vivo. To be noted: Puccinia recondita, 168 h; 100 ppm spray, day before inoculation. In outline:
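Disease was scored as leaf rust pustules 7 days after a 24 h, 20° saturated-humidity incubation of seedlings inoculated with P. recondita var. tritici spores. Inoculation followed by one day a run-off spray of 100 ppm compound in water containing 6% acetone and 250 ppm TREM 014.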

In the next data set the test system is Pyricularia oryzae. Put plainly: whole plant or invertebrate. The format is in vivo. To be noted: Pyricularia oryzae, 168 h, read-out: % Control of Rice Blast, 100 ppm spray, day before inoculation.
The test system of the next data set is Phytophthora infestans. Description: whole plant or invertebrate. The format is in vivo. To be noted: Phytophthora infestans, in Solanum lycopersicum, 168 h, read-out: % Control of Tomato Late Blight, 100 ppm spray, day before inoculation.
A further data set concerns Rhizoctonia solani. Description: Rice sheath blight control on sprayed rice seedlings (Example 87). The format is in vivo. To be noted: Rhizoctonia solani, 168 h, 100 ppm spray, day before inoculation. In outline:
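Disease ratings followed 7 days' growth-room incubation of seedlings given a bran/R. solani mycelium inoculum. Inoculation took place one day after spraying to run-off. The spray was a 100 ppm compound suspension in water containing 6% acetone and 250 ppm TREM 014.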

In the next data set the test system is 5 Phytophthora species. The data set is classed as cell-based. To be noted: 200.0 ppm in V-8 agar, 22° C., 6 days.
Data set [2] concerns Pythium aphanadermatum. Put plainly: Pythium control on corn, seed coating (Example 92). The format is in vivo. To be noted: 504 h, 2 gm/kg seed. The procedure:
Several compounds of the previous examples were incorporated into a proprietary formulation and used to coat corn seeds at a rate of 2 gm/kg seed. After being thoroughly coated, the seeds were allowed to air dry at room temperature. The seeds were then planted into soil amended with a mixture of the fungus Pythium aphanadermatum, sand, and corn meal at a rate sufficient to kill most untreated seeds. The seeds were held at 49° F. for 2 weeks and then at 70° F. for 1 additional week. After this time disease ratings were made.

In data set [3] the test system is Pythium aphanadermatum. Description: Pythium control on cotton, seed coating (Example 91). The format is in vivo. The following applies: 168 h; for pest or weed control at 2 g/kg seed: 2 gm/kg seed. An excerpt: Several compounds of the previous examples were incorporated into a proprietary formulation and used to coat cotton seeds at a rate of 2 gm/kg seed. After being thoroughly coated, the seeds were allowed to air dry at room temperature. The cotton seeds were then planted into soil amended with the fungus Pythium aphanadermatum, sand, and corn meal at a rate sufficient to kill most untreated seeds. The seeds were held at room temperature for 1 week, after which time disease ratings were made.

A further data set relates to Monilinia fructicola. Description: Stone fruit brown rot control on dipped canned peach halves (Example 86). The following applies: 120 h, 100 ppm dip, percent growth inhibition of colonies after five days. The text has this: Several compounds of the previous examples were again dissolved in acetone in an amount equal to 5% of the final volume and then suspended at a concentration of 100 ppm in purified water containing 700 ppm of the surfactant TREM 014 (polyhydric alcohol esters). Canned peach halves were dipped in this suspension for three minutes and then placed to air dry in sterile containers. Upon drying, the peach halves were inoculated with two pieces of Monilinia fructicola mycelium, causal agent of stone fruit brown rot, and incubated in the sterile containers for five days. At that time the radii of the colonies' growth were measured on each peach. […] Percent disease control (percent growth inhibition of colonies on treated peaches as compared to that of colonies on untreated peaches) is expressed in the table below.

Take `C[Si](C)(Cn1cncn1)c1ccccc1C(F)(F)F` [Dimethyl(1H-1,2,4-triazol-1-ylmethyl)(2-trifluoromethylphenyl)silane]: the pest or weed control at 100 ppm in the data set on Erysiphe cichoracearum turned out to be 100%; in the data set with Helminthosporium maydis it was 0%; in the data set on Erysiphe graminis, 100%. Further, in the data set on apple seedlings (applied at 400 ppm), the Phytotoxicity on apple result is reported as “G”. In addition, the figures for the pest or weed control at 400 ppm in the data set on Venturia inaequalis (applied at 400 ppm) and with Cercospora arachidicola (applied at 400 ppm) were 65% and 25%, respectively.
Turning to `C[Si](C)(Cn1cncn1)c1ccc(Br)cc1` [(4-Bromophenyl)dimethyl(1H-1,2,4-triazol-1-ylmethyl)silane], the pest or weed control at 100 ppm in the data set on Erysiphe cichoracearum came to 100%; in data set [1], 80%; in the data set with Pyricularia oryzae, 0%; in the data set on Venturia inaequalis it was 90%; with Helminthosporium maydis, 90%; in the data set on Phytophthora infestans it was 0%. Further, the pest or weed control at 100 ppm with Cercospora arachidicola worked out at 0%. Further, the Phytotoxicity on cucumber entry in the data set on cucumber seedlings is listed as “G”. The Phytotoxicity on apple result in the data set with apple seedlings (100 ppm spray) is given as “G”.
Consider `C[Si](C)(Cn1cncn1)c1ccc(Oc2ccc(Cl)cc2)cc1` [[4-(4-Chlorophenoxy)phenyl]dimethyl(1H-1,2,4-triazol-1-ylmethyl)silane], for which the pest or weed control at 100 ppm was found to be 80% in the data set on Erysiphe cichoracearum; 0% in the data set on Rhizoctonia solani; 90% in [1]; 0% with Pyricularia oryzae; 100% in the data set with Venturia inaequalis; 50% in the data set with Helminthosporium maydis. Also, the pest or weed control at 100 ppm with Phytophthora infestans was 50%; with Cercospora arachidicola, 0%. Also, the “No. of 5 Phytophthora species controlled in vitro” value in the data set with 5 Phytophthora species amounted to 0.
On to `C[Si](Cn1cncn1)(c1ccccc1)c1ccc(Cl)cc1Cl` (centres unmarked) [(2,4-Dichlorophenyl)methyl(phenyl)(1H-1,2,4-triazol-1-ylmethyl)silane], for which the pest or weed control at 100 ppm stood at 100% in the data set with Erysiphe cichoracearum; 0% with Rhizoctonia solani; 100% in data set [1]; 0% in the data set on Pyricularia oryzae; 100% in the data set on Venturia inaequalis; 0% in the data set on Helminthosporium maydis. The values for the pest or weed control at 100 ppm in the data set with Phytophthora infestans and with Cercospora arachidicola were 0% and 100%, respectively. The Phytotoxicity on cucumber entry with cucumber seedlings was “G”. The Phytotoxicity on apple entry in the data set with apple seedlings (100 ppm spray) is on record as “G”.
For the compound `C[Si](Cn1cncn1)(c1ccccc1)c1ccccc1` [Methyldiphenyl(1H-1,2,4-triazol-1-ylmethyl)silane], the pest or weed control at 100 ppm in the data set on Erysiphe cichoracearum is 100%; in the data set on Rhizoctonia solani, 0%; in [1], 0%; in the data set with Pyricularia oryzae, 0%; in the data set on Venturia inaequalis, 100%; in the data set on Helminthosporium maydis, 80%. Further, the pest or weed control at 100 ppm in the data set on Phytophthora infestans came to 0%; in the data set on Cercospora arachidicola it was 100%; in the data set on Erysiphe graminis, 100%. Moreover, the pest or weed control at 2 g/kg seed with Pythium aphanadermatum [2] and with Pythium aphanadermatum [3] was 0% throughout. The Phytotoxicity on cucumber entry in the data set on cucumber seedlings is given as “G”.
For the compound `C[Si](C)(Cn1cncn1)c1ccc(Oc2ccccc2)cc1` [Dimethyl(4-phenoxyphenyl)(1H-1,2,4-triazol-1-ylmethyl)silane], the pest or weed control at 100 ppm came out at 70% in the data set with Erysiphe cichoracearum; 0% in the data set on Rhizoctonia solani; 0% in data set [1]; 0% with Pyricularia oryzae; 100% with Venturia inaequalis; 0% in the data set on Helminthosporium maydis. The pest or weed control at 100 ppm in the data set on Phytophthora infestans is 50%; in the data set on Cercospora arachidicola it was 0%; in the data set on Erysiphe graminis it was 0%. Also, the pest or weed control at 2 g/kg seed in the data set on Pythium aphanadermatum [2] came to 0%. In addition, in the data set on 5 Phytophthora species, the “No. of 5 Phytophthora species controlled in vitro” value stood at 0. Further, the pest or weed control at 0.5 g/kg seed in the data set on Pythium aphanadermatum [3] (0.5 gm/kg seed) stood at 18%.
Turning to `C[Si](C)(Cn1cncn1)c1ccc(Cl)c(Cl)c1` [(3,4-Dichlorophenyl)dimethyl(1H-1,2,4-triazol-1-ylmethyl)silane], the pest or weed control at 100 ppm turned out to be 100% in the data set with Erysiphe cichoracearum; 80% with Rhizoctonia solani; 60% in data set [1]; 0% with Pyricularia oryzae; 80% in the data set on Venturia inaequalis; 90% with Helminthosporium maydis. Besides, the results for the pest or weed control at 100 ppm in the data set with Phytophthora infestans, in the data set with Cercospora arachidicola and in the data set with Erysiphe graminis were 0%, 0% and 100%, respectively. The pest or weed control at 2 g/kg seed in the data set with Pythium aphanadermatum [2] came out at 43%. In addition, the “No. of 5 Phytophthora species controlled in vitro” value in the data set on 5 Phytophthora species worked out at 2.
Turning to `CCCC[Si](C)(C)Cn1cncn1` [Butyldimethyl(1H-1,2,4-triazol-1-ylmethyl)silane], the pest or weed control at 100 ppm turned out to be 100% with Erysiphe cichoracearum; 0% in data set [1]; 0% with Pyricularia oryzae; 0% with Venturia inaequalis; 0% in the data set with Helminthosporium maydis; 0% in the data set on Phytophthora infestans. Further, in the data set with Cercospora arachidicola, the pest or weed control at 100 ppm was 0%. The pest or weed control at 2 g/kg seed in the data set with Pythium aphanadermatum [2] and in the data set on Pythium aphanadermatum [3] was 0% each time. For the same compound, the “No. of 5 Phytophthora species controlled in vitro” value in the data set with 5 Phytophthora species turned out to be 1. This compound showed an inhibition of growth at 100 µg/mL with Monilinia fructicola of 95%.
Consider `CCCC[Si](C)(Cn1cncn1)c1ccc(Cl)cc1` (centres unmarked) [Butyl(4-chlorophenyl)methyl(1H-1,2,4-triazol-1-ylmethyl)silane], for which the pest or weed control at 100 ppm in the data set on Erysiphe cichoracearum amounted to 100%; in the data set on Rhizoctonia solani it was 0%; in data set [1], 80%; in the data set with Pyricularia oryzae it was 0%; in the data set on Venturia inaequalis it was 100%; in the data set on Helminthosporium maydis, 0%. The pest or weed control at 100 ppm worked out at 0% in the data set on Phytophthora infestans, 0% in the data set on Cercospora arachidicola and 90% in the data set with Erysiphe graminis. The Phytotoxicity on cucumber entry with cucumber seedlings is given as “G”. Also, the Phytotoxicity on apple result in the data set on apple seedlings (100 ppm spray) is “G”. In the data set with Monilinia fructicola, 100 µg/mL produced 98% inhibition of growth.

By inhibition of growth is commonly meant how much of the control response was suppressed.
